Test system: tau protein
Experiment: Tau protein in vitro degradation assay (Western blot, Tau-13 antibody)
Assay type: cell-based, human
Conditions: SK-N-SH cells, 72 hours of incubation; for Degradation activity* (highest amount of degradation observed at any dosage; tau protein remaining) / Degradation activity (tau protein remaining; highest amount of degradation observed at any dosage): tested at 300 nM, 100 nM, 33 nM and 11 nM, Western blot, Tau-13 antibody; for Activity* (highest amount of degradation observed at any dosage, as tau protein remaining): tested at 1000 nM, 300 nM and 100 nM
In short: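 Tau degradation read by Tau-13 Western blot (detects all human tau forms) of SDS-PAGE-resolved lysates from SK-N-SH cells. Cells were plated at least 18 h before 72 h exposure to PROTACs at either 1000/300/100 nM or 300/100/33/11 nM.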

O=C1CCC(N2C(=O)c3ccc(N4CC(OCCCOCCCO[C@H]5C[C@H](Oc6ncc(-c7ccc8c(c7)[nH]c7ccncc78)cc6C(F)(F)F)C5)C4)cc3C2=O)C(=O)N1 (some centres unmarked) [Compound 148, 5-(3-(3-(3-((1r,3r)-3-((5-(5H-pyrido[4,3-b]indol-7-yl)-3-(trifluoromethyl)pyridin-2-yl)oxy)cyclobutoxy)propoxy)propoxy)azetidin-1-yl)-2-(2,6-dioxopiperidin-3-yl)isoindoline-1,3-dione]
Degradation activity* (highest amount of degradation observed at any dosage; tau protein remaining): B (≤80% and >50% tau protein remaining after 72 hours of incubation with the test compound)

Cn1c2ccncc2c2ccc(-c3ccc(O[C@H]4C[C@H](OCCCC(F)(F)COC5CC6(C5)CN(c5ccc7c(c5)C(=O)N(C5CCC(=O)NC5=O)C7=O)C6)C4)nc3)cc21 (some centres unmarked) [Compound 197, 5-(6-((2,2-difluoro-5-((1r,3r)-3-((5-(5-methyl-5H-pyrido[4,3-b]indol-7-yl)pyridin-2-yl)oxy)cyclobutoxy)pentyl)oxy)-2-azaspiro[3.3]heptan-2-yl)-2-(2,6-dioxopiperidin-3-yl)isoindoline-1,3-dione]
Degradation activity (tau protein remaining; highest amount of degradation observed at any dosage): C (>80% tau protein remaining after 72 hours of incubation with the test compound)

Cn1c2ccncc2c2ccc(-c3ccc(C#CCN4CCN(CCCOC5CN(c6ccc7c(c6)C(=O)N(C6CCC(=O)NC6=O)C7=O)C5)CC4)nc3)cc21 (centres unmarked) [Compound 76, 2-(2,6-dioxopiperidin-3-yl)-5-(3-(3-(4-(3-(5-(5-methyl-5H-pyrido[4,3-b]indol-7-yl)pyridin-2-yl)prop-2-yn-1-yl)piperazin-1-yl)propoxy)azetidin-1-yl)isoindoline-1,3-dione]
Degradation activity* (highest amount of degradation observed at any dosage; tau protein remaining): C (>80% tau protein remaining after 72 hours of incubation with the test compound)

Cn1c2ccncc2c2ccc(-c3cnc(OCCOCCOCCOCCOCCOc4ccc5c(c4)C(=O)N(C4CCC(=O)NC4=O)C5=O)cc3Cl)cc21 (centres unmarked) [Compound 113, 5-((14-((4-chloro-5-(5-methyl-5H-pyrido[4,3-b]indol-7-yl)pyridin-2-yl)oxy)-3,6,9,12-tetraoxatetradecyl)oxy)-2-(2,6-dioxopiperidin-3-yl)isoindoline-1,3-dione]
Degradation activity* (highest amount of degradation observed at any dosage; tau protein remaining): C (>80% tau protein remaining after 72 hours of incubation with the test compound)

Cn1c2ccncc2c2ccc(-c3ccc(OCCCCCOCCCCCCC4CN(c5ccc6c(c5)C(=O)N(C5CCC(=O)NC5=O)C6=O)C4)nc3)cc21 (centres unmarked) [Compound 133, 2-(2,6-dioxopiperidin-3-yl)-5-(3-(6-((5-((5-(5-methyl-5H-pyrido[4,3-b]indol-7-yl)pyridin-2-yl)oxy)pentyl)oxy)hexyl)azetidin-1-yl)isoindoline-1,3-dione]
Degradation activity* (highest amount of degradation observed at any dosage; tau protein remaining): A (≤50% tau protein remaining after 72 hours of incubation with the test compound)

Cn1c2ccncc2c2ccc(-c3ccc(O[C@H]4C[C@H](OCCCCCCCCN5CCN(c6ccc7c(c6)C(=O)N(C6CCC(=O)NC6=O)C7=O)CC5)C4)nc3)cc21 (some centres unmarked) [Compound 91, 2-(2,6-dioxopiperidin-3-yl)-5-(4-(8-((1r,3r)-3-((5-(5-methyl-5H-pyrido[4,3-b]indol-7-yl)pyridin-2-yl)oxy)cyclobutoxy)octyl)piperazin-1-yl)isoindoline-1,3-dione]
Degradation activity* (highest amount of degradation observed at any dosage; tau protein remaining): C (>80% tau protein remaining after 72 hours of incubation with the test compound)

O=C1CCC(N2C(=O)c3cccc(NCCOCCOCCOc4ccc(-c5ccc6c(c5)[nH]c5ccncc56)cn4)c3C2=O)C(=O)N1 (centres unmarked) [Compound 3, 4-(2-(2-(2-(5-(5H-pyrido[4,3-b]indol-7-yl)pyridin-2-yloxy)ethoxy)ethoxy)ethylamino)-2-(2,6-dioxopiperidin-3-yl)isoindoline-1,3-dione]
Activity* (highest amount of degradation observed at any dosage, as tau protein remaining): A (≤50% tau protein remaining after 72 hours of incubation with the test compound)

Cc1ncsc1-c1ccc(CNC(=O)[C@@H]2C[C@@H](O)CN2C(=O)[C@@H](NC(=O)COCCOCCOc2ccc3nc(-c4ccc(N(C)C)cc4)ccc3c2)C(C)(C)C)cc1 [Compound 27, (2S,4R)-1-((S)-2-(2-(2-(2-(2-(4-(dimethylamino)phenyl)quinolin-6-yloxy)ethoxy)ethoxy)acetamido)-3,3-dimethylbutanoyl)-4-hydroxy-N-(4-(4-methylthiazol-5-yl)benzyl)pyrrolidine-2-carboxamide]
Activity* (highest amount of degradation observed at any dosage, as tau protein remaining): C (>80% tau protein remaining after 72 hours of incubation with the test compound)

Cn1c2ccncc2c2ccc(-c3ccc(O[C@H]4C[C@H](CN5CC6(CC(OCCCCOc7ccc8c(c7)C(=O)N(C7CCC(=O)NC7=O)C8=O)C6)C5)C4)nc3)cc21 (some centres unmarked) [Compound 135, 2-(2,6-dioxopiperidin-3-yl)-5-(4-((2-(((1r,3r)-3-((5-(5-methyl-5H-pyrido[4,3-b]indol-7-yl)pyridin-2-yl)oxy)cyclobutyl)methyl)-2-azaspiro[3.3]heptan-6-yl)oxy)butoxy)isoindoline-1,3-dione]
Degradation activity* (highest amount of degradation observed at any dosage; tau protein remaining): B (≤80% and >50% tau protein remaining after 72 hours of incubation with the test compound)

Cn1c2ccncc2c2ccc(-c3ccc(OC4CC5(C4)CN(CCCCOCCCCOc4ccc6c(c4)C(=O)N(C4CCC(=O)NC4=O)C6=O)C5)nc3)cc21 (centres unmarked) [Compound 107, 2-(2,6-dioxopiperidin-3-yl)-5-(4-(4-(6-((5-(5-methyl-5H-pyrido[4,3-b]indol-7-yl)pyridin-2-yl)oxy)-2-azaspiro[3.3]heptan-2-yl)butoxy)butoxy)isoindoline-1,3-dione]
Degradation activity* (highest amount of degradation observed at any dosage; tau protein remaining): C (>80% tau protein remaining after 72 hours of incubation with the test compound)

O=C1CCC(N2C(=O)c3ccc(OCCCCCN4CCN(CCCc5ccc(-c6ccc7c8cnccc8n(CC(F)(F)F)c7c6)cn5)CC4)cc3C2=O)C(=O)N1 (centres unmarked) [Compound 61, 2-(2,6-dioxopiperidin-3-yl)-5-((5-(4-(3-(5-(5-(2,2,2-trifluoroethyl)-5H-pyrido[4,3-b]indol-7-yl)pyridin-2-yl)propyl)piperazin-1-yl)pentyl)oxy)isoindoline-1,3-dione]
Degradation activity* (highest amount of degradation observed at any dosage; tau protein remaining): C (>80% tau protein remaining after 72 hours of incubation with the test compound)

Cn1c2ccncc2c2ccc(-c3ccc(OCCCCCOCCCCCO[C@H]4C[C@H](Oc5ccc6c(c5)C(=O)N(C5CCC(=O)NC5=O)C6=O)C4)nc3)cc21 (some centres unmarked) [Compound 85, 2-(2,6-dioxopiperidin-3-yl)-5-((1r,3r)-3-((5-((5-((5-(5-methyl-5H-pyrido[4,3-b]indol-7-yl)pyridin-2-yl)oxy)pentyl)oxy)pentyl)oxy)cyclobutoxy)isoindoline-1,3-dione]
Degradation activity* (highest amount of degradation observed at any dosage; tau protein remaining): A (≤50% tau protein remaining after 72 hours of incubation with the test compound)

Cn1c2ccncc2c2ccc(-c3ccc(O[C@H]4C[C@H](Oc5ccc(CCCCCCOc6ccc7c(c6)C(=O)N(C6CCC(=O)NC6=O)C7=O)cc5)C4)nc3)cc21 (some centres unmarked) [Compound 147, 2-(2,6-dioxopiperidin-3-yl)-5-((6-(4-((1r,3r)-3-((5-(5-methyl-5H-pyrido[4,3-b]indol-7-yl)pyridin-2-yl)oxy)cyclobutoxy)phenyl)hexyl)oxy)isoindoline-1,3-dione]
Degradation activity* (highest amount of degradation observed at any dosage; tau protein remaining): C (>80% tau protein remaining after 72 hours of incubation with the test compound)

Cn1c2ccncc2c2ccc(-c3ccc(C#CCOCCOCCOCCOCCOc4ccc5c(c4)C(=O)N(C4CCC(=O)NC4=O)C5=O)nc3)cc21 (centres unmarked) [Compound 71, 2-(2,6-dioxopiperidin-3-yl)-5-((15-(5-(5-methyl-5H-pyrido[4,3-b]indol-7-yl)pyridin-2-yl)-3,6,9,12-tetraoxapentadec-14-yn-1-yl)oxy)isoindoline-1,3-dione]
Degradation activity* (highest amount of degradation observed at any dosage; tau protein remaining): A (≤50% tau protein remaining after 72 hours of incubation with the test compound)

Cc1ncsc1-c1ccc(CNC(=O)[C@@H]2C[C@@H](O)CN2C(=O)[C@@H](NC(=O)COCCOCCOCCOc2ccc(-c3ccc4c(c3)[nH]c3ccncc34)cn2)C(C)(C)C)cc1 [Compound 1, (2S,4R)-1-((S)-14-(5-(5H-pyrido[4,3-b]indol-7-yl)pyridin-2-yloxy)-2-tert-butyl-4-oxo-6,9,12-trioxa-3-azatetradecane)-4-hydroxy-N-(4-(4-methylthiazol-5-yl)benzyl)pyrrolidine-2-carboxamide]
Activity* (highest amount of degradation observed at any dosage, as tau protein remaining): C (>80% tau protein remaining after 72 hours of incubation with the test compound)

O=C1CCC(N2C(=O)c3ccc(OCCOCCOCCOCCOCCOc4ccc(-c5ccc6c7cnccc7n(C(F)F)c6c5)cn4)cc3C2=O)C(=O)N1 (centres unmarked) [Compound 138, 5-((14-((5-(5-(difluoromethyl)-5H-pyrido[4,3-b]indol-7-yl)pyridin-2-yl)oxy)-3,6,9,12-tetraoxatetradecyl)oxy)-2-(2,6-dioxopiperidin-3-yl)isoindoline-1,3-dione]
Degradation activity* (highest amount of degradation observed at any dosage; tau protein remaining): B (≤80% and >50% tau protein remaining after 72 hours of incubation with the test compound)

Cn1c2ccncc2c2ccc(-c3cnc(OCCOCCOCCOCCOCCOc4ccc5c(c4)C(=O)N(C4CCC(=O)NC4=O)C5=O)c(C#N)c3)cc21 (centres unmarked) [Compound 203, 2-((14-((2-(2,6-dioxopiperidin-3-yl)-1,3-dioxoisoindolin-5-yl)oxy)-3,6,9,12-tetraoxatetradecyl)oxy)-5-(5-methyl-5H-pyrido[4,3-b]indol-7-yl)nicotinonitrile]
Degradation activity (tau protein remaining; highest amount of degradation observed at any dosage): A (≤50% tau protein remaining after 72 hours of incubation with the test compound)
